Legend:
[1] = target: T1, horseradish peroxidase (Armoracia rusticana, UniProt P00433); assay: Comparison of compounds 1a-e at pH 8.9, time course and total intensity of chemiluminescence; assay type: biochemical; conditions: 0.01 mM acridan, 0.1M phosphate pH 8.9, 6.2 mM H2O2, 2.25 mM p-iodophenol, 1×10^-13 mol HRP
T1 sequence (P00433 31-338 limits assumed): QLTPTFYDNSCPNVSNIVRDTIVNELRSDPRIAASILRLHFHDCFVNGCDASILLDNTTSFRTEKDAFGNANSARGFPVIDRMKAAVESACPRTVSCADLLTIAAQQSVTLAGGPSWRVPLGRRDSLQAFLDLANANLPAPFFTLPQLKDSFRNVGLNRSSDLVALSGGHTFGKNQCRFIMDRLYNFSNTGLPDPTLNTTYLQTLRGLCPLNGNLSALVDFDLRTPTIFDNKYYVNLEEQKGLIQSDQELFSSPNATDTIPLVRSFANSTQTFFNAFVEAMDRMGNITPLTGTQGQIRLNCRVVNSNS
Protocol: (§1) The experiments in the following examples were performed using a Turner Designs TD-20e luminometer fitted with neutral density filter for light attenuation. Data collection, analysis and display were software controlled. Constant temperature was maintained by means of an external circulating water bath connected to the luminometer.
A 200 μL volume of a formulation containing 0.01 mM acridan compound 1a-e in 0.1M phosphate buffer, pH 8.9, […] (6.2 mM) H2 O2, 2.25 mM p-iodophenol, 0.5% (w/w) Tween 20 and 1 mM EDTA was reacted with 1×10^-13 mol of horseradish peroxidase. […] Compared below are the peak light intensity (Imax) in relative light units (RLU), the time to maximum light intensity (tmax) and total light output.

[2] = target: T1, horseradish peroxidase; assay: Sensitivity of detection of horseradish peroxidase using 1b and hydrogen peroxide; assay type: biochemical; conditions: 1b 46 μmol/L, 0.2 mmol/L hydrogen peroxide, 37° C.; for linear assay range for HRP: pH 8.0 tris
Protocol: as §1
A matrix optimization experiment was done using 1b (0.1 mM-0.05 mM), hydrogen peroxide (4.4 mM-44 μM), HRP (9×10^-19 mol-1.4×10^-12 mol) at 37° C. The final assay reagent consists of 2.25×10^-3 M p-iodophenol, 0.5% Tween 20 and 1×10^-3 M EDTA in pH 8.0, 0.1M tris buffer. The best compromise between sensitivity and dynamic range was obtained using 1b (46 μmol/L) and 0.2 mmol/L hydrogen peroxide. These conditions gave a linear assay for HRP in the range of 9×10^-19 to 1.4×10^-14 mol (detection limit S/B=1.4 after 5 min with 9×10^-19 mol) or in the range of 9×10^-19 to 1.4×10^-15 mol (detection limit S/B=2 after 15 min with 9×10^-19 mol).
FIGS. 2A to 2C show the correlation of corrected signal to background vs. amount of HRP using solutions containing 0.05 mM 1b, 0.5% Tween 20, 1×10^-3 M EDTA in pH 8.0, 0.1M tris buffer.

[3] = target: T1, horseradish peroxidase; assay: Sensitivity of detection of horseradish peroxidase using 1b and sodium perborate; assay type: biochemical; conditions: 1b 46 μmol/L, 0.2 mmol/L perborate, 37° C.; for linear assay range for HRP: pH 8.0 tris
Protocol: as §1
A matrix optimization experiment was done using 1b (0.1 mM-0.05 mM), sodium perborate (3 mM-0.2 mM) and HRP (1.4×10^-18 mol-1.4×10^-14 mol) at 37° C. The final assay reagent consists of 2.25×10^-3 M p-iodophenol, 0.5% Tween 20 and 1×10^-3 M EDTA in pH 8.0, 0.1M tris buffer. The best compromise between sensitivity and dynamic range was obtained using 1b (46 μmol/L) and 0.2 mmol/L perborate. These conditions gave a linear assay for HRP in the range of […] to 1.4×10^-14 mol (detection limit S/B=1.4 after 5 min with 1.4×10^-18 mol) or in the range of 1.4×10^-18 to 1.4×10^-15 mol (detection limit S/B-1.5 after 15 min with 1.4×10^-18 mol).
FIGS. 3A to 3C show the correlation of corrected signal to background vs. amount of HRP using solutions containing 0.05 mM 1b, 0.5% Tween 20, 1×10^-3 M EDTA in pH 8.0, 0.1M tris buffer.

[4] = target: T1, horseradish peroxidase; assay: Effect of pH and buffer salt on chemiluminescence of 1b; assay type: biochemical; conditions: 0.1 mM 1b, 0.8 mM H2O2, 2.25 mM p-iodophenol, 1.4×10^-15 mol HRP, 30 min, room temperature
Protocol: as §1
The present invention may be practiced over the pH range of at least 7-9 and functions with different buffering salts. Tubes containing 200 μL of a formulation containing 0.1 mM 1b in the specified buffer, 0.8 mM H2 O2, 2.25 mM p-iodophenol, 0.5% (w/w) Tween 20 and 1 mM EDTA were placed in the luminometer at room temperature. Horseradish peroxidase (1.4×10^-15 mol) was injected and the chemiluminescence intensity determined at 30 min. The time course of the light emission was similar in all four solutions. The optimum pH can vary with changes in the concentrations of the reactants.

[5] = target: T2, HRP (Armoracia rusticana, UniProt P00433); assay: Comparison of detection of HRP with luminol reagent and 1b reagent; assay type: biochemical, horseradish; conditions: corrected signal-to-background at 5 min, 37° C., comparing log (S-B)/B=0
T2 sequence (P00433 31-338 limits assumed): T1 sequence (P00433 31-338 limits assumed)
Protocol: as §1
Forty μL of a solution containing 1b (0.05 mM), p-iodophenol (2.25 mM), H2 O2 (0.2 mM), Tween 20 (0.5%), EDTA (1 mM) in 0.1M tris, pH 8.0 and forty μL of the commercial reagent (Amersham, Arlington Heights, Ill.) were incubated at 37° C. and reacted with varying amounts of HRP. FIG. 6 compares the corrected signal-to-background ratios at 5 min. […] Measuring light intensity at 15 min provides an additional reduction in detection limit with the reagent containing 1b, while the luminol reagent results are unchanged.

I max (RLU), peak light intensity ([1]; 0.5% Tween 20, 1 mM EDTA): 2047 RLU
I total (RLU), total light output [1]: 2 × 10^6 RLU
t max (min), time to maximum light intensity [1]: 4.2 min
linear assay range for HRP ([2]; after 5 min): 9e-19 to 1.4e-14 mol
linear assay range for HRP ([2]; after 15 min): 9e-19 to 1.4e-15 mol
detection limit S/B ([2]; after 5 min with 9×10^-19 mol HRP): 1.4
detection limit S/B ([2]; after 15 min with 9×10^-19 mol HRP): 2
linear assay range for HRP ([3]; after 5 min): 4e-19 to 1.4e-14 mol
linear assay range for HRP ([3]; after 15 min): 1.4e-18 to 1.4e-15 mol
detection limit S/B ([3]; after 5 min with 1.4×10^-18 mol HRP): 1.4
S/B ([4]; 0.1 M phosphate buffer, pH 8.9): 306
S/B ([4]; 0.1 M tris buffer, pH 8.0): 1400
S/B ([4]; 0.1 M tris buffer, pH 8.5): 600
S/B ([4]; 0.1 M tris buffer, pH 8.9): 160
sensitivity of detection of HRP compared to the luminol reagent [5]: greater sensitivity of detection
Compound: CN1c2ccccc2C(C(=O)Oc2ccc(O)cc2)c2ccccc21 [Compound 1b, 4'-Hydroxyphenyl 10-methylacridan-9-carboxylate]
